Experimental findings from publication PMC13198257, “An aerosolized dual-action autotaxin inhibitor-PPARγ agonist for the treatment of pulmonary fibrosis” (Cell Reports Medicine, 2026) are described below.

In one data set the target is T1, PPARγ LBD (Homo sapiens, UniProt P37231).
T1 construct: using recombinant PPARγ LBD protein dissolved in a buffer; made in house
T1 sequence (P37231 238-503 limits assumed): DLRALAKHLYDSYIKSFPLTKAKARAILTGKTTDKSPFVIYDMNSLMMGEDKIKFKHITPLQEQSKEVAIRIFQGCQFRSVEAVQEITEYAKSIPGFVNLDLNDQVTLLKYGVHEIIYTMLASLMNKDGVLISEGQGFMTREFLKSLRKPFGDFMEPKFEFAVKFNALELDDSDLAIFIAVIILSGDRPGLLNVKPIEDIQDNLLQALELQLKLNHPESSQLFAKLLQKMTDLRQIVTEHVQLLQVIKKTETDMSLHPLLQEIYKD
As to the kind of experiment: Isothermal titration calorimetry (ITC). Format: binding. The following applies: for Kd: PPARγ LBD, 25°C. As for the experimental part: ITC was performed[49] on a TA Instruments Affinity ITC (TA Instruments, New Castle, Delaware, USA), using recombinant PPARγ LBD protein dissolved in a buffer containing 25 mM HEPES, 150 mM KF, 5 mM DTT, 10% w/v glycerol and 1% DMSO at pH 7.5. […] The titration was performed at 25°C with a stirring rate of 75 rpm. An interval of 300 s was maintained between injections. ITC raw data were analyzed with the NanoAnalyze software package (version 3.7.5). An independent binding model was used to fit the reaction enthalpy (ΔH), binding affinity constant (KD), and stoichiometry (n). Free energy change (ΔG) was calculated with the equation ΔG = −RT ln K and the entropy (ΔS) was calculated with the equation ΔG = ΔH−TΔS.

Another data set has as its system ATX activity in serum. As to the kind of experiment: TOOS assay: ex vivo lyso-PLD (ATX) activity in serum with 2 mM exogenous LPC. It counts as biochemical. Here is the method:
ATX inhibitory activity ex vivo of examined compounds was assessed via the colorimetric TOOS assay.[32]^,[35]^,[36] The assay was done in Lyso-PLD buffer (100 mM Tris-Cl, pH 8, 500 mM NaCl, 5 mM MgCl2, 5 mM CaCl2). A mix of Lyso-PLD buffer and serum (10:1) was prepared. LPC 16:0 was added to this mix at a final concentration of 2 mM. Increasing concentrations of compounds and a choline standard curve (0–100 μM) were prepared using the Lyso-PLD buffer/serum/LPC mix and 100 μL of these were placed in separate wells of a 96-well plate, followed by a 5 h incubation at 37°C. 100 μL of color mix (TOOS 0.3 mM, 4-AAP 0.5 mM, choline oxidase 2 U/mL, HRP 7.95 U/mL in Lyso-PLD buffer) were added to each well. Color was measured at 550 nm using an Optimax spectrophotometer. Background was subtracted from all values to account for the endogenous LPC and choline in the serum. Produced choline levels were calculated from the choline standard curve and indicate the amount of substrate (LPC) that had been consumed in each well corresponding to Lyso-PLD activity.

Data set [1] is described as follows: AMP membrane permeability. Format: in vitro ADME. To be noted: 10 μΜ.
Data set [2] in a line: Cytotoxicity in HepG2 hepatocytes. To be noted: human, HepG2 cells. Format: cell-based.
The next data set concerns the target T2, ATX (Homo sapiens, UniProt Q13822).
T2 construct: purchased Sino Biological 11308-H07H
As to the kind of experiment: Amplex Red assay: ATX inhibitory activity in vitro. Format: biochemical. The following applies: in vitro; for IC50: Amplex Red assay. As for the experimental part: ATX inhibitory activity in vitro of examined compounds was assessed with the Amplex Red assay,[32]^,[35]^,[36] as recently published in detail.[37] The assay was done in Amplex Red Assay buffer (Tris 50 mM, CaCl2 5 mM, pH 8). Briefly, 50 μL of increasing concentrations of each compound were placed in separate wells of a black 96-well plate. […] 50 μL of the LPC-containing assay buffer (200 μM) were added to the wells and incubated for 30 min at 37°C to allow the enzyme to initially interact with its substrate. 50 μL of the detection mix (Amplex Red 200 μM, choline oxidase 0.4 U/mL, horseradish peroxidase 4 U/mL) were added to the plate wells. Fluorescence was measured in a Tecan M200 Fluorimeter using excitation at 530 nm and reading at 590 nm, every 5 min for 30 min. The velocity of the reaction and the remaining ATX activity were calculated at the linear phase of the reaction. Dose-response inhibition graphs were plotted with GraphPad Software.

For data set [3], the system named is BLM-induced pulmonary fibrosis. The experiment in a line: BLM-induced pulmonary fibrosis model, inhaled drug. It counts as in vivo, C57Bl/6 mice. From the text:
BLM-induced pulmonary fibrosis was induced via the oropharyngeal aspiration of BLM (0.8 U/Kg).[54]^,[55]^,[141] The dose and route of administration have been selected following extensive local testing to minimise lethality while preserving a solid and reproducible fibrotic profile. Readout assays include weight and overall health status, pulmonary oedema and inflammation, collagen levels determination (soluble in BALFs, Q-RT-PCR and histology in lung tissue), lung histology with specialised stainings (Fast green/picrosirius red), as well as the measurement of respiratory functions (flexiVent, SQIREQ); a detailed protocol is publicly available at protocols.io.
Drug inhalation of compound 5 and EL244 to conscious, softly restrained mice was performed using the inExpose system (Scireq).[55] Compound 5 and EL244 were diluted in Kolliphor (15% and 10%, respectively) to final concentrations of 6.5 and 9.02 mg/mL, respectively. Volumes of 1 mL (for 5) and 0.6 mL (for EL244) were aerosolized over 10 and 15 min, respectively in groups of 6 mice, corresponding to a final estimated dose of 15mg/Kg per mouse. Control groups received an aerosolized solution of Kolliphor (10–15%) in saline.

The nature of data set [4]: Mouse metabolic clearance and half-life in vitro.
Where [5] appears, read: inhaled 15 mg/kg b.i.d., therapeutic mode from 7 days post-BLM.
Where [6] appears, read: inhaled 15 mg/kg o.d., prophylactic mode.
Where [7] appears, read: inhaled 15 mg/kg o.d., therapeutic mode from day 7 post-BLM.

Regarding `O=C1NC(=O)C(Cc2ccc(OCCN3CCN(C(=O)OCc4cc(Cl)cc(Cl)c4)CC3)cc2)S1` (stereo not shown) [Compound 5, 3,5-dichlorobenzyl4-(2-(4-((2,4-dioxothiazolidin-5-yl)methyl)phenoxy)ethyl)piperazine-1-carboxylate], on PPARγ LBD, the “Thermodynamics of binding to PPARγ-LBD” value is given as “entropy-driven” and binding was characterised by a dissociation constant (Kd) of 600 nM. Also, the “lyso-PLD (ATX) inhibition in serum” value with ATX activity in serum was “dose-dependent effect”. Also, the AMP in data set [1] was 3.7e-06 cm/s. Further, in data set [2], the CC50 (as a rule, the concentration giving 50% cytotoxicity) amounted to 90300 nM. The IC50 (usually the concentration that gives 50% inhibition) against ATX came to 290 nM. In addition, in data set [3] (setting [5]), the BALF inflammatory cells entry was “decreased inflammatory cells”; the “BALF total protein (vascular leak, pulmonary edema)” value is “decreased total protein levels”; the “Decrease of BALF soluble collagen” value is reported as “did not reach statistical significance”; the “Decrease of lung tissue Col1a1 mRNA” value was “did not reach statistical significance”. In data set [3] (setting [5]), the “Histology (H&E, fast green/Sirius red)” value is “fewer fibrotic regions and decreased collagen deposition”; the “Respiratory functions (Cst, Crs, A)” value is listed as “efficiently attenuated the BLM-induced impairment of respiratory functions”. Besides, the half-life (usually the time needed for the level to fall by half in the phase considered) at 0.1 μM in data set [4] was found to be 21 min.
`O=C1NC(=O)C(Cc2ccc(OCCC3CCN(C(=O)OCc4cc(Cl)cc(Cl)c4)CC3)cc2)S1` (stereo not shown) [EL244, 3,5-dichlorobenzyl 4-(2-(4-((2,4-dioxothiazolidin-5-yl)methyl)phenoxy)ethyl)piperidine-1-carboxylate]: at PPARγ LBD, the “Thermodynamics of binding to PPARγ-LBD” value is on record as “enthalpy-driven” and the Kd (commonly the equilibrium constant for the complex coming apart) turned out to be 1300 nM. For the same molecule, the “lyso-PLD (ATX) inhibition in serum” value in the data set on ATX activity in serum was “Improved lyso-PLD inhibition”. The same molecule displayed an AMP in data set [1] of 8e-07 cm/s. The molecule further registered a 50% cytotoxic concentration (CC50) in data set [2] of 81200 nM. Moreover, on ATX, the IC50 is 50 nM; the “ATX inhibitory effect, fold better than 5” value is listed as 5 fold; the “ATX inhibitory effect, fold better than GLPG1690” value was determined as 3 fold; the “ATX inhibitory effect, fold better than TGZ” value was found to be 10 fold. Also, the “PPARγ target gene mRNA in lung tissue (RT-qPCR)” value in data set [3] (BLM mice, inhaled EL244) is “marginal increases”. Further, in data set [3] (setting [6]), the BALF soluble collagen entry is listed as “significantly reduced”; the Histology entry is “attenuated collagen deposition and reduced fibrotic regions”; the “Inflammation (BALF inflammatory cells)” value is reported as “markedly reduced”; the “Lung tissue Col1a1 mRNA” value is recorded as “significantly reduced”. For the same molecule, in data set [3] (setting [6]), the “Pulmonary edema (BALF total protein)” value is “markedly reduced”. Also, the Respiratory functions result in data set [3] (inhaled 15 mg/kg o.d., prophylactic mode, 15 days from one day before BLM) is on record as “significantly improved respiratory functions”. Also, in data set [3] (setting [7]), the BALF soluble collagen result is reported as “significantly reducing”; the “Effect on inflammation (BALF inflammatory cells)” value is “did not reach statistical significance”; the Histopathology entry is “reduced collagen deposition and fewer and smaller fibrotic regions”; the “Lung tissue Col1a1 expression” value is on record as “significantly reducing”. Also, in data set [3] (setting [7]), the Respiratory functions result was “significantly restored all assessed respiratory functions” and the “Vascular permeability (BALF total protein)” value was “reduced vascular permeability”. Besides, in data set [4], the half-life at 0.1 μM worked out at 61 min and the microsomal CLint (in general, the capacity of the preparation to metabolise the compound, expressed as a volume cleared per time) at 0.1 μM stood at 114 µL/min/mg.
